From patent US9717745B2, “Pharmaceutical compositions and their use for treatment of cancer and autoimmune diseases” (ZHEJIANG DTRM BIOPHARMA CO. LTD., priority 2015, dated 2017)
Like-named read-outs stand apart in the source and are kept apart here. Marks after values point to notes of the source that are not given here.

Assays:
[1] = Collagen-induced arthritis (CIA) model in male DBA/1 mice; type: in vivo; set-up: Clinical Score (Mean) / Pathological score: Inflammatory cell infiltration / Pathological score: Pannus growth / Pathological score: Cartilage injury / Pathological score: Bone resorption / Pathological score: Total: scale not given here; conditions: for Clinical Score (Mean): Dexamethasone 0.2 mg/kg; for Clinical score of CIA mice model (in words): FIG. 15
Protocol: Collagen-Induced Arthritis (CIA) Model:
The combination of Compounds 3 and 12 was evaluated in collagen induced arthritis (CIA) mouse model in Male DBA/1 mice. The animals were divided into 8 groups, including a normal, a vehicle, […] treatment groups: All animals (except the normal group) were immunized with 200 μg of bovine collagen (type II) on day 0 and day 21. Seven days (day 28) after boosting immunization, animals started to show symptoms of disease with an average clinical score around 1. […] The treatments were given orally for 2 consecutive weeks. Body weight and clinical score were monitored through the study (recorded three times a week started after second immunization). At the end of the study, animals were euthanized and both hind paws were collected for histopathology analysis.

WSU-DLCL2 tumor cells [2] = experiment: Inhibition of tumor growth in vivo, resistant WSU-DLCL2 xenograft SCID mouse model; set-up: species or system mice; conditions: FIG. 8
Protocol: (§1) Inhibition Study of Tumor Growth In Vivo:
(§2) SCID mice or nude mice (weighing about 18 g at the beginning of the experiment) were randomly divided into groups by the software in order to achieve close average weights between groups and control the bias within the allowable range. The mice were injected BTK cell lines (TMD-8, WSU-DLCL2 and DoHH-2) for tumor formation. Inhibitors were administered orally once or twice a day, a total of 14 days, 21 days or 28 days. Body weights and tumor volume were recorded.
(§3) Xenograft Tumor Models Inoculated with TMD-8, or DoHH2, or WSU-DLCL2 Tumor Cell Lines:
TMD-8 is a sensitive human diffuse large B-cell lymphoma cell line, and DoHH2 is a more difficult to treat human follicular lymphoma cell line, while WSU-DLCL2 is a multi-drug resistant (MDR) human non-Hodgkin's lymphoma cell line.
The TMD-8, DoHH2, WSU-DLCL2 tumor cells were maintained in vitro as a suspension culture in RPMI-1640 medium supplemented with 10% heat inactivated fetal calf serum at 37° C. in an atmosphere of 5% CO2 in air. The tumor cells were routinely subcultured twice weekly. The cells growing in an exponential growth phase were harvested and counted for tumor inoculation. […] Animal body weight and tumor volume were measured every 2- or 3-days throughout the treatment.

[3] = Adjuvant-induced arthritis (AA/AIA) model in female Lewis rats; type: in vivo; conditions: for Paw volume of AA rats model (in words): FIG. 13; for Paw volume (Mean): 11 (3 mg/kg) BID positive control, oral from day 13
Protocol: Adjuvant-Induced Arthritis AA Model:
The combination of Compounds 3 and 14 was evaluated in adjuvant-induced arthritis (AA) model in female Lewis rats. All rats except the normal group were immunized with complete Freund's adjuvant (CFA) subcutaneously at the left hind paw to induce arthritis at day 0. At 6 days post immunization, some rats started to display clinical symptoms of arthritis, e.g. erythema and swelling. […] The treatments were given orally for 3 consecutive weeks. The body weight, paw volume and clinical score were monitored every other day after day 13 throughout the course of the study. At the terminal point, right hind paws were collected for histopathology analysis with H.E. staining.

TMD-8 cell line = experiment: Inhibition assay of tumor cell activity (cell viability), TMD-8; type: cell-based, human; conditions: 48 hours incubation
Protocol: Inhibition Assay of Tumor Cell Activity:
Tumor cells (TMD-8, DoHH2 and WSU-DLCL2) were transferred and attached to 96-well plates. After one night, blank buffer and selected concentrations (0.01 nM-100 μM) of the test compound solution were added. After 48 hours incubation, CellTiter-Go was added to lyse the cells. Recording luminescent signal and calculate the percent inhibition of cell viability.

TMD-8 tumor cells = experiment: Inhibition of tumor growth in vivo, TMD-8 lymphoma xenograft SCID mouse model; conditions: TMD-8 mice model, oral
Protocol: as §1, §2, §3
TMD-8 is a sensitive human diffuse large B-cell lymphoma cell line, and DoHH2 is a more difficult to treat human follicular lymphoma cell line, while WSU-DLCL2 is a multi-drug resistant (MDR) human non-Hodgkin's lymphoma cell line. Drug combination therapies provide better efficacies in all three tumor models than single targeted agent alone.
The TMD-8, DoHH2, WSU-DLCL2 tumor cells were maintained in vitro as a suspension culture in RPMI-1640 medium supplemented with 10% heat inactivated fetal calf serum at 37° C. in an atmosphere of 5% CO2 in air. The tumor cells were routinely subcultured twice weekly. The cells growing in an exponential growth phase were harvested and counted for tumor inoculation. Each mouse was inoculated subcutaneously at the right flank with the tumor cells (10×10^6) in 0.2 ml of PBS with Matrigel (1:1) for tumor development. The treatments were started after the average tumor size reached approximately 100-200 mm^3. Each group consisted of 6-10 tumor-bearing mice. The testing article (vehicle, compound or combination) was orally administrated to the mice according to the predetermined doses for 14-days or 21-days. Animal body weight and tumor volume were measured every 2- or 3-days throughout the treatment.

[4] = Collagen-induced arthritis (CIA) model in male DBA/1 mice; type: in vivo; set-up: scale not given here; conditions: CIA study, 14 alone, 0.15 mg/kg QD, Mean ± SEM
WSU-DLCL2 tumor cells [5] = conditions: oral gavage to mice, 480 mg/kg/day, Knutson et al. 2014, cited from earlier work
[6] = CIA study, Left hind paw, Dexamethasone 0.2 mg/kg QD, Mean ± SEM
[7] = CIA study, Right hind paw, Dexamethasone 0.2 mg/kg QD, Mean ± SEM
[8] = AA study, 11, 3 mg/kg, Mean ± SEM

SMILES: C[C@@H]1C[C@H]2[C@@H]3CCC4=CC(=O)C=C[C@]4(C)[C@@]3(F)[C@@H](O)C[C@]2(C)[C@@]1(O)C(=O)CO [Dexamethasone]
- Pathological score: Total ([1]; CIA study, Dexamethasone 0.2 mg/kg QD, Mean ± SEM): 0.00 ± 0.00
- Pathological score: Bone resorption [1, 6]: 0.00 ± 0.00
- Pathological score: Cartilage injury [1, 6]: 0.00 ± 0.00
- Pathological score: Inflammatory cell infiltration [1, 6]: 0.00 ± 0.00
- Pathological score: Pannus growth [1, 6]: 0.00 ± 0.00
- Pathological score: Bone resorption [1, 7]: 0.00 ± 0.00
- Pathological score: Cartilage injury [1, 7]: 0.00 ± 0.00
- Pathological score: Inflammatory cell infiltration [1, 7]: 0.00 ± 0.00
- Pathological score: Pannus growth [1, 7]: 0.00 ± 0.00
- Clinical Score (Mean) ([1]; CIA study, day 21 after first immunization): 0.00
- Clinical Score (Mean) ([1]; CIA study, day 32): 0.60***
- Clinical Score (Mean) ([1]; CIA study, day 39): 0.40***
- Clinical Score (Mean) ([1]; CIA study, day 42): 0.20***

SMILES: C=CC(=O)N1CC[C@@H](n2nc(-c3ccc(Oc4c(F)c(F)cc(F)c4F)cc3F)c3c(N)ncnc32)C1 [Compound 3, 1-((R)-3-(4-amino-3-(2-fluoro-4-(2,3,5,6-tetrafluorophenoxy)phenyl)-1H-pyrazolo[3,4-d]pyrimidin-1-yl)pyrrolidin-1-yl)prop-2-en-1-one]
- Clinical score of CIA mice model (in words) [1]: treatment effects are absent
- Efficacy in WSU-DLCL2 non-Hodgkin's lymphoma mice model (in words) (WSU-DLCL2 tumor cells [2]): in line with the efficacy of Ibrutinib
- Paw volume of AA rats model (in words) [3]: treatment effects are absent

SMILES: CN(Cc1cnc2nc(N)nc(N)c2n1)c1ccc(C(=O)N[C@@H](CCC(=O)O)C(=O)O)cc1 [Compound 18, Methotrexate]
- Inhibition of individual compound on TMD-8 cell line (Inh %) AVG (TMD-8 cell line; 0.01 uM): −8.45%
- Inhibition of individual compound on TMD-8 cell line (Inh %) AVG (TMD-8 cell line; 0.1 uM): 32.04%
- Inhibition of individual compound on TMD-8 cell line (Inh %) AVG (TMD-8 cell line; 1 uM): 39.55%

SMILES: C[C@@H]1CCN(C(=O)CC#N)C[C@@H]1N(C)c1ncnc2[nH]ccc12 [Compound 11, Tofactinib]
- Pathological score: Bone resorption [3, 8]: 0.5 ± 0.22
- Pathological score: Cartilage injury [3, 8]: 0.2 ± 0.20
- Pathological score: Inflammatory cell infiltration [3, 8]: 1.9 ± 0.18
- Pathological score: Pannus growth [3, 8]: 0.4 ± 0.22
- Pathological score: Total [3, 8]: 3.0 ± 0.73
- Paw volume (Mean) ([3]; Day 0): 1.00 mL
- Paw volume (Mean) ([3]; Day 17): 1.54*** mL
- Paw volume (Mean) ([3]; Day 26): 1.37*** mL
- Paw volume (Mean) ([3]; Day 28): 1.33*** mL
- Paw volume (Mean) ([3]; Day 31): 1.23*** mL
- Paw volume (Mean) ([3]; Day 33): 1.23*** mL
- Inhibition of individual compound on TMD-8 cell line (Inh %) AVG (TMD-8 cell line; 0.01 uM): 6.02%
- Inhibition of individual compound on TMD-8 cell line (Inh %) AVG (TMD-8 cell line; 0.1 uM): 1.31%
- Inhibition of individual compound on TMD-8 cell line (Inh %) AVG (TMD-8 cell line; 1 uM): 6.66%

SMILES: CO[C@H]1C[C@@H]2CC[C@@H](C)[C@@](O)(O2)C(=O)C(=O)N2CCCC[C@H]2C(=O)O[C@H]([C@H](C)C[C@@H]2CC[C@@H](OCCO)[C@H](OC)C2)CC(=O)[C@H](C)/C=C(\C)[C@@H](O)[C@@H](OC)C(=O)[C@H](C)C[C@H](C)/C=C/C=C/C=C/1C [Compound 14, Everolimus]
- Days of treatment to tumor disappearance / complete tumor regression (TMD-8 tumor cells): 15 days
- Tumor disappearance (in words) (TMD-8 tumor cells): complete disappearance of tumor grafts
- Tumor rebound after treatment was stopped (TMD-8 tumor cells): tumor rebounded
- Tumor rebound after treatment was stopped (TMD-8 tumor cells; listed as Everolimus): quickly rebounded
- Clinical score of CIA mice model (in words) [1]: treatment effects are absent
- Pathological score: Bone resorption ([4]; Left hind paw): 1.80 ± 0.61
- Pathological score: Bone resorption ([4]; Right hind paw): 2.00 ± 0.67
- Pathological score: Bone resorption ([3]; AA study, 14 alone, 0.5 mg/kg, Mean ± SEM): 3.5 ± 0.17
- Paw volume of AA rats model (in words) [3]: treatment effects are absent

SMILES: CCN(c1cc(-c2ccc(CN3CCOCC3)cc2)cc(C(=O)NCc2c(C)cc(C)[nH]c2=O)c1C)C1CCOCC1 [EPZ-6438]
- Tumor growth inhibition in WSU-DLCL tumor model (in words) (WSU-DLCL2 tumor cells [5]): achieved a similar effect
- Tumor growth inhibition in WSU-DLCL tumor model (in words) (WSU-DLCL2 tumor cells [5]; listed as EZ-6438): inhibited tumor growth
